Assay [1] addresses T1, Alpha-1A adrenergic receptor (Homo sapiens) (UniProt P35348).
T1 sequence (whole entry): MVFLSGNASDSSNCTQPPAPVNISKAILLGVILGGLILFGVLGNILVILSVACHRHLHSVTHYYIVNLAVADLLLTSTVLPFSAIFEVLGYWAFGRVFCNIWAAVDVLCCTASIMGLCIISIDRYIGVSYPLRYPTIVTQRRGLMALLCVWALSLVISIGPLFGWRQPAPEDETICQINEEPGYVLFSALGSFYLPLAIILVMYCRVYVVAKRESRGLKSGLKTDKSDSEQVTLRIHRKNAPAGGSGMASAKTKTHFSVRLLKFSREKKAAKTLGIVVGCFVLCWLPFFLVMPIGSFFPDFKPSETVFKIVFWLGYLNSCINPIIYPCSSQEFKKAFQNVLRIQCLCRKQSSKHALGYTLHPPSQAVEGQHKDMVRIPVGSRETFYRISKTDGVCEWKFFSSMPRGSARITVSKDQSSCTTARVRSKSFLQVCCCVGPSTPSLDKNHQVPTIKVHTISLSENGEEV
As to the kind of experiment: Inhibition of Adrenergic alpha1A at compound concentration of 10.0 uM in the Eurofins-Panlabs radioligand binding assay (Eurofins_assay_203110). Particulars: Rattus norvegicus; Compound concentration 10.0 uM. The arrangement: ligand concentration 0.25 nM.

Assay [2] has as its target Inhibitor of nuclear factor kappa-B kinase subunit alpha (Homo sapiens) (UniProt O15111). As to the kind of experiment: Inhibition of IKKalpha(h) at 10.0 µM in the Eurofins Kinase panel. Particulars: Compound concentration 10.0 uM.
In assay [3] the target is Tyrosine-protein kinase JAK2 (Homo sapiens) (UniProt O60674). Kind of assay: Inhibition of JAK2(h) at 10.0 µM in the Eurofins Kinase panel. Particulars: Compound concentration 10.0 uM.
Chain of Tyrosine-protein kinase JAK2 (Homo sapiens) (O60674 whole entry): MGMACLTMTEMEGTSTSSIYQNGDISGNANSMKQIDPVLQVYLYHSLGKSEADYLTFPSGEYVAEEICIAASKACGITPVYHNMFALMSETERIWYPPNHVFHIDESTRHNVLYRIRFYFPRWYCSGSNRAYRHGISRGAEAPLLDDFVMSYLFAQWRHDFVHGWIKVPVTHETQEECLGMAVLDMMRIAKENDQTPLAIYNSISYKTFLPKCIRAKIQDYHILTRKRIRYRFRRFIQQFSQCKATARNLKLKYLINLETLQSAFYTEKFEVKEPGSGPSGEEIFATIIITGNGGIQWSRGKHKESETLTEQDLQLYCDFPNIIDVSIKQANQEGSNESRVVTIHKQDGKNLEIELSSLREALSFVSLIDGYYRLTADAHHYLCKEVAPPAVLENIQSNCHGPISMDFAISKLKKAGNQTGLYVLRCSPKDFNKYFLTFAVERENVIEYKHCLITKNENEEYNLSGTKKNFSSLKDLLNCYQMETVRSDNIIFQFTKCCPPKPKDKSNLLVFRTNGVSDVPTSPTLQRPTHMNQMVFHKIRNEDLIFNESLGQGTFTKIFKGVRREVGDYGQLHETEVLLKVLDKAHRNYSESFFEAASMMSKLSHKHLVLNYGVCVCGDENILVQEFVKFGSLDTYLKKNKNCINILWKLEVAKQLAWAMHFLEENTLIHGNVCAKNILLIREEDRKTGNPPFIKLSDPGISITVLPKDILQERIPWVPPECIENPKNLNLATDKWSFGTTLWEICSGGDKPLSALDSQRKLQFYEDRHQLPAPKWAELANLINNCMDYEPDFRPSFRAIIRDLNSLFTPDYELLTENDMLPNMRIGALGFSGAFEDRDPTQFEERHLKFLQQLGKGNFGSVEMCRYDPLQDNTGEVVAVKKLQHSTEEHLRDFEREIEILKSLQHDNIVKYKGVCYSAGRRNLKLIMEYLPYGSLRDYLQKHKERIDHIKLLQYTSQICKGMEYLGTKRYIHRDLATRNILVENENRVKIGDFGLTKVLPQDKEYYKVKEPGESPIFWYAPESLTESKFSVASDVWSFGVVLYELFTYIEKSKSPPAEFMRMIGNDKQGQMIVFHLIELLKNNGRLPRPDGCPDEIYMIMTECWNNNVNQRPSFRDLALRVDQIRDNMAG
Assay [4] addresses Platelet-derived growth factor receptor alpha (Homo sapiens) (UniProt P16234). As to the kind of experiment: Inhibition of PDGFRalpha(h) at 10.0 µM in the Eurofins Kinase panel. The note with it: Compound concentration 10.0 uM.
The target in assay [5] is 5-hydroxytryptamine receptor 1D (Homo sapiens) (UniProt P28221). The note with it: Compound concentration 10.0 uM.
Chain of 5-hydroxytryptamine receptor 1D (Homo sapiens) (P28221 whole entry): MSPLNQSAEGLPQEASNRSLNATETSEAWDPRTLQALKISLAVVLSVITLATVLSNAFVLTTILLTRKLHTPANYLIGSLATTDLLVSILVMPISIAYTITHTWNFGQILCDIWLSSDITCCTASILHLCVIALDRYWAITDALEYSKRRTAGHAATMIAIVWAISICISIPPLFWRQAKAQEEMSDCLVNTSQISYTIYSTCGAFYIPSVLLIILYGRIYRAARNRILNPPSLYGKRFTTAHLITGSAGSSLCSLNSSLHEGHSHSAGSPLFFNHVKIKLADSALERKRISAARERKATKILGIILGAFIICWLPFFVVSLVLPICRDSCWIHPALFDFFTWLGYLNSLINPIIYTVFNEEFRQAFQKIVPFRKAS
Assay [6] has as its target T2, Muscarinic acetylcholine receptor M4 (Homo sapiens) (UniProt P08173).
T2 sequence (whole entry): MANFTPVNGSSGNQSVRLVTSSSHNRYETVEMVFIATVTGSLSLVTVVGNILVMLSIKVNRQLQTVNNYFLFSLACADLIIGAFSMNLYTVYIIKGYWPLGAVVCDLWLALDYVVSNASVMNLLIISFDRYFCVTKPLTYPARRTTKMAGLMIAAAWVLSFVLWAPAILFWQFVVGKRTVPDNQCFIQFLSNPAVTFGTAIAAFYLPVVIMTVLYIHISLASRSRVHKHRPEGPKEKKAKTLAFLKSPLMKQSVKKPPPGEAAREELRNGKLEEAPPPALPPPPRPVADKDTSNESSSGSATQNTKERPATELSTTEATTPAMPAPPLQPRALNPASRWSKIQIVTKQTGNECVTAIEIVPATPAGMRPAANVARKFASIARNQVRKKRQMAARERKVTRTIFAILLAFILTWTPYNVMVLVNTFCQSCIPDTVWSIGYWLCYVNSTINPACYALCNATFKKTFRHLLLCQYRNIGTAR
The note with it: Compound concentration 10.0 uM.

For assay [7], the target named is Type-1 angiotensin II receptor (Homo sapiens) (UniProt P30556). The note with it: Compound concentration 10.0 uM.
The target in assay [8] is Progesterone receptor (Homo sapiens) (UniProt P06401). Particulars: Compound concentration 10.0 uM.
Chain of Progesterone receptor (Homo sapiens) (P06401 whole entry): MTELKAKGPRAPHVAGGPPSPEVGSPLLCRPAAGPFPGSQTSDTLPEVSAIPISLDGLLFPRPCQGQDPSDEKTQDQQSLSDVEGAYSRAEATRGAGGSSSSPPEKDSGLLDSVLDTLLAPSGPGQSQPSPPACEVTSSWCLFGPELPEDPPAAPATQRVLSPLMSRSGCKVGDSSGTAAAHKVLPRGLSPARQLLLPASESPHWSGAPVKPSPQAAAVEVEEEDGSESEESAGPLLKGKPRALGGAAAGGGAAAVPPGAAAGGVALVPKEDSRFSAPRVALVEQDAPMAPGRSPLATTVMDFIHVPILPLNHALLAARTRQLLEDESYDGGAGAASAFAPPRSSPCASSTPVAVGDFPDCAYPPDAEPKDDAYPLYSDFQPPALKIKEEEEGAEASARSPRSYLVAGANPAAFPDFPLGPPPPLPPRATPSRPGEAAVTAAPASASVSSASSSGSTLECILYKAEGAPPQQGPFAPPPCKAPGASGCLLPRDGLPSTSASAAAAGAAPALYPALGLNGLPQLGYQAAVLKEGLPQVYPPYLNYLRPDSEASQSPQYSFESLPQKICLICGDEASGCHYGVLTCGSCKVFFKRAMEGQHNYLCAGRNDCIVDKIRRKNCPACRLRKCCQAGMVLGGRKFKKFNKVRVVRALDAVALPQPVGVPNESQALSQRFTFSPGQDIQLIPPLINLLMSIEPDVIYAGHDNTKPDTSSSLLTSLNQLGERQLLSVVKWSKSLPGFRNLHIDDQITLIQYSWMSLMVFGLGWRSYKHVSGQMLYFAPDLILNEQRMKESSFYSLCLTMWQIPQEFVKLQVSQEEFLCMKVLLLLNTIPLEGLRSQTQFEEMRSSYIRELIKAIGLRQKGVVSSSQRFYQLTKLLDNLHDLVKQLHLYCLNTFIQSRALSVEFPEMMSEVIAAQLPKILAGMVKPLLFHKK
Assay [9] concerns the target Neuropeptide Y receptor type 1 (Homo sapiens) (UniProt P25929). As to the kind of experiment: Inhibition of Neuropeptide Y Y1 at 10 µM in the Eurofins-Panlabs radioligand binding assay (Eurofins_assay_257010). Particulars: Compound concentration 10.0 uM.
The species named for the next assay is Homo sapiens. Kind of assay: Inhibition of Nicotinic Acetylcholine at compound concentration of 10.0 uM in the Eurofins-Panlabs radioligand binding assay (Eurofins_assay_258590). The note with it: Compound concentration 10.0 uM. The assay is classed as protein-complex assay.
The species entered for a further assay is Oryctolagus cuniculus. Kind of assay: Inhibition of Purinergic P2X at 10 µM in the Eurofins-Panlabs radioligand binding assay (Eurofins_assay_268700). The note with it: Compound concentration 10.0 uM. The assay is classed as protein assay.
The species named for assay [10] is Rattus norvegicus. As to the kind of experiment: Inhibition of Rolipram at 10 µM in the Eurofins-Panlabs radioligand binding assay (Eurofins_assay_268811). The assay is classed as protein assay. The arrangement: ligand concentration 1.8 nM. The note with it: Compound concentration 10.0 uM.
Assay [11] addresses C-C chemokine receptor type 2 (Homo sapiens) (UniProt P41597). Kind of assay: Inhibition of Chemokine CCR2B at 10 µM in the Eurofins-Panlabs radioligand binding assay (Eurofins_assay_217550). The note with it: Compound concentration 10.0 uM.
The species named for assay [12] is Rattus norvegicus. Kind of assay: Inhibition of Glycine, Strychnine-Sensitive at 10 µM in the Eurofins-Panlabs radioligand binding assay (Eurofins_assay_239000). Particulars: Compound concentration 10.0 uM.
In assay [13] the target is Melanocortin receptor 3 (Homo sapiens) (UniProt P41968). Kind of assay: Inhibition of Melanocortin MC3 at 10 µM in the Eurofins-Panlabs radioligand binding assay (Eurofins_assay_251300). The arrangement: ligand concentration 0.035 nM. The note with it: Compound concentration 10.0 uM.
Chain of Melanocortin receptor 3 (Homo sapiens) (P41968 whole entry): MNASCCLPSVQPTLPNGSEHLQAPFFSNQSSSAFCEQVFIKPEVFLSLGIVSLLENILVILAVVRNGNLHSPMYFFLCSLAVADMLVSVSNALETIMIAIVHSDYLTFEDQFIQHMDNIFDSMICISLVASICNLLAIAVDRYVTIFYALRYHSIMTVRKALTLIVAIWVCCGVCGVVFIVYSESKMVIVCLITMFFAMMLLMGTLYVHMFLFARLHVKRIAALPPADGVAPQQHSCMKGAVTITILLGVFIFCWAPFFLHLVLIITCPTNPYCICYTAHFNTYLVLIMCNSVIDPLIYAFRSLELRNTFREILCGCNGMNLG
Assay [14] has as its target 5-hydroxytryptamine receptor 4 (Homo sapiens) (UniProt Q13639). As to the kind of experiment: Inhibition of Serotonin (5-Hydroxytryptamine) 5-HT4 at 10 µM in the Eurofins-Panlabs radioligand binding assay (Eurofins_assay_272000). Particulars: Cavia porcellus; Compound concentration 10.0 uM.
A further assay deals with Vasopressin V1a receptor (Homo sapiens, UniProt P37288). As to the kind of experiment: Inhibition of Vasopressin V1A at compound concentration of 10.0 uM in the Eurofins-Panlabs radioligand binding assay (Eurofins_assay_287530). The arrangement: ligand concentration 0.03 nM, non-specific ligand with concentration 1 uM (Arg8)-Vasopressin, incubation time 2 h, incubation temperature 25 C.
Chain of Vasopressin V1a receptor (P37288 whole entry): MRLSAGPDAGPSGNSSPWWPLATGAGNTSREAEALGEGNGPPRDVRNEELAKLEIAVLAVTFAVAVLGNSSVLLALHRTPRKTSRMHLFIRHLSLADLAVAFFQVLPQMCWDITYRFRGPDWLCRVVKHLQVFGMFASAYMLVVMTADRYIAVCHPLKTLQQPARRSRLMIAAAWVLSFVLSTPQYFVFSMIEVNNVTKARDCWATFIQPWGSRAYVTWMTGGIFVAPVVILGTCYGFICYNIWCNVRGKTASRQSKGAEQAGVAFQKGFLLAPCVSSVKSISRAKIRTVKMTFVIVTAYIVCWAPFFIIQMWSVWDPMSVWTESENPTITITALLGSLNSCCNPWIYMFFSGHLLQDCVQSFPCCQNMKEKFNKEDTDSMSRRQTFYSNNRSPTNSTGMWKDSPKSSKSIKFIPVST

The target in a further assay is T3, Oxytocin receptor (Homo sapiens, UniProt P30559).
T3 sequence (P30559 whole entry): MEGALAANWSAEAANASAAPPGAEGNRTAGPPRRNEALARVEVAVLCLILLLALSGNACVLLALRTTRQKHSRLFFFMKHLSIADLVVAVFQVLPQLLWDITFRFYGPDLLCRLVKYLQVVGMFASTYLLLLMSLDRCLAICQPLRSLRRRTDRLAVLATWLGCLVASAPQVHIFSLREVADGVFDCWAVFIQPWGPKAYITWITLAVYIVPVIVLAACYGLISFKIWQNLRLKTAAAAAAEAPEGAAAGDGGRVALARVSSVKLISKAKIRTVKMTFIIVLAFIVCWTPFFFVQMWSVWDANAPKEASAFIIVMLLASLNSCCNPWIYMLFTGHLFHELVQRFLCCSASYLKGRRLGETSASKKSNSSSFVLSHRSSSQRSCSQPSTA
As to the kind of experiment: Inhibition of Oxytocin at 1 µM in the Eurofins-Panlabs radioligand binding assay (Eurofins_assay_260900). The arrangement: ligand concentration 0.8 nM, non-specific ligand with concentration 1 µM Oxytocin, incubation time 2 h, incubation temperature 25°C.

Molecules are shown by their SMILES.

Chain of C-C chemokine receptor type 2 (Homo sapiens) (P41597 whole entry, looked up): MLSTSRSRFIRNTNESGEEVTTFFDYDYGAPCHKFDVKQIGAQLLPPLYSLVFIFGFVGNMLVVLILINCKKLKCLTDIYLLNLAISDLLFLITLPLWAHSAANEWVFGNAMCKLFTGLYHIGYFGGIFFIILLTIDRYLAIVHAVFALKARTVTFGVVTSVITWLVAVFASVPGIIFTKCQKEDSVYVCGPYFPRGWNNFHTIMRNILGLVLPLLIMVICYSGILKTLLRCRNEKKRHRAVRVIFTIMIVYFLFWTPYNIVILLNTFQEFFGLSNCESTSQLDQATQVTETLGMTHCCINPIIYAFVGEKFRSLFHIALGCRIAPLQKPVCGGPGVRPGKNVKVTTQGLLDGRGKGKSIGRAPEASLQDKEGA
Chain of Platelet-derived growth factor receptor alpha (Homo sapiens) (P16234 whole entry): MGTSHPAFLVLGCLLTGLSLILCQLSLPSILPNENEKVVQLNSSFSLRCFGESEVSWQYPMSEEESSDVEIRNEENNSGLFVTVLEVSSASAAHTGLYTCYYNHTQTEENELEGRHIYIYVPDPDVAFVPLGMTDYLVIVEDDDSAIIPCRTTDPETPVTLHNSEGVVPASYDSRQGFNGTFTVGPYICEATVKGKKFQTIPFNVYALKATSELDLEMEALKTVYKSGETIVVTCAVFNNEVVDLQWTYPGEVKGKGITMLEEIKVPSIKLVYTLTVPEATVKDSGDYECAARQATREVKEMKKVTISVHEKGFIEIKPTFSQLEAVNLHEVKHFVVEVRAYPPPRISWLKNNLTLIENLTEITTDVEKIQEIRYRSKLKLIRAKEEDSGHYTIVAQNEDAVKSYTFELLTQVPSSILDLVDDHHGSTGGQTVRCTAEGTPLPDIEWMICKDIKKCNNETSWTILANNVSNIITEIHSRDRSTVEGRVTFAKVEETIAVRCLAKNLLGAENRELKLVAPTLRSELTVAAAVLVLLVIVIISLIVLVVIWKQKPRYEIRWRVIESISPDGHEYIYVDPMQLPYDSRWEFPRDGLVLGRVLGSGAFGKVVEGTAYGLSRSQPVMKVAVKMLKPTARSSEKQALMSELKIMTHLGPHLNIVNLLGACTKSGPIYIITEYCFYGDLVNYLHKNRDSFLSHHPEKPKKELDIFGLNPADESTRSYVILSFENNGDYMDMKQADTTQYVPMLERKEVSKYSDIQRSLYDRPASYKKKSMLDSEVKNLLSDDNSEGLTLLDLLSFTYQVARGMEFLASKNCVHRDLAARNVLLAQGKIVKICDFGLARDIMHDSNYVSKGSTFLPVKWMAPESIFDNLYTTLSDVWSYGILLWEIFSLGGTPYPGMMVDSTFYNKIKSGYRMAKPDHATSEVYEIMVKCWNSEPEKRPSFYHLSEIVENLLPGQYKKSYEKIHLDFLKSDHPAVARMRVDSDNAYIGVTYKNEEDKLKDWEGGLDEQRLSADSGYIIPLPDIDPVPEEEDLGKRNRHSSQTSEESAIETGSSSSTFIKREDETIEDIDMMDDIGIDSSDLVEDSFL
Chain of Neuropeptide Y receptor type 1 (Homo sapiens) (P25929 whole entry): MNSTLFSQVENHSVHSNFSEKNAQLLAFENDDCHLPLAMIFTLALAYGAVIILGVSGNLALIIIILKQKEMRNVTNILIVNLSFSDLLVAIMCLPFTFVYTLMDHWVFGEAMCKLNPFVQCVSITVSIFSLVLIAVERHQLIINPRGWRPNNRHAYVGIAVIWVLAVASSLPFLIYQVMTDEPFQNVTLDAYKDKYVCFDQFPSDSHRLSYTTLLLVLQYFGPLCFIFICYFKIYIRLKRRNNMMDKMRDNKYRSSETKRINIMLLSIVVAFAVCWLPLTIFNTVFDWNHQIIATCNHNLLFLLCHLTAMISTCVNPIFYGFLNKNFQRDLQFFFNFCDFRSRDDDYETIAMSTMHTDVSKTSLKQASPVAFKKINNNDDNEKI

As a reminder, the inhibition is the change of the read-out against control, counted positive when it falls. Consider `O=c1n(Cc2cncn2-c2cccc(Cl)c2)nc(-c2ccc(Cl)cc2)n1C[C@H](O)C(F)(F)F`, for which the inhibition in [1] was 3%; in assay [2], -2.69%; in assay [3], -4.95%; in assay [4] it was -5.3%; in [5], 10.1%; in assay [6], -9.78%. Also, the inhibition in [7] was -6%; in [8], 25%.

In general, IC50 refers to the concentration at which inhibition is half-maximal. In general, Ki refers to a measure of affinity in units of concentration, obtained from inhibition or displacement. Read a low Ki as higher affinity. Turning to `C[C@H](O)c1nc(Cn2nc(-c3ccc(Cl)cc3)n(C[C@H](O)C(F)(F)F)c2=O)nn1-c1cccc(Cl)c1` [PECAVAPTAN], the inhibition in assay [9] was 11%; in the assay filed under Homo sapiens it was -6%; in the assay filed under Oryctolagus cuniculus, 18%; in the assay filed under Rattus norvegicus [10], -2%; in assay [11], 2%; in the assay filed under Rattus norvegicus [12] it was 12%. For the same compound, the inhibition in assay [13] was 6%; in assay [14] it was 19%. Besides, the IC50 amounted to 6.74 nM at Vasopressin V1a receptor and 15.5 nM at Oxytocin receptor. Besides, the Ki is 1.33 nM on Vasopressin V1a receptor and 5.06 nM at Oxytocin receptor.
